In ChEMBL document CHEMBL6182947, “Discovery of Phloroglucinol Derivatives as a New Type of Nonnucleoside Inhibitors with Anti-herpes Simplex Virus Type 1 Activity” (J Med Chem, 2025):

Key:
[1] = Cytotoxicity against African green monkey Vero cells assessed as cell viability measured after 24 hrs incubation by MTT assay; type: toxicity, cell-based; conditions: chlorocebus sabaeus
[2] = tested on: Human alphaherpesvirus 1; experiment: Antiviral activity against HSV1 infected in African green monkey Vero cells assessed as reduction of virus-induced cytopathic effect measured after 48 hrs of incubation; type: functional, organism-based; conditions: Human alphaherpesvirus 1, Vero
[3] = Selectivity index, ratio of CC50 for Cytotoxicity against african green monkey Vero cells to IC50 for Antiviral activity against HSV1 infected in African green monkey Vero cells; type: toxicity, cell-based; conditions: read-out: Selectivity Index
[4] = tested on: Human alphaherpesvirus 1; experiment: Antiviral activity against ACV-resistant HSV1 Blue infected in African green monkey Vero cells assessed as reduction of virus-induced cytopathic effect measured after 48 hrs of incubation; type: functional, organism-based; conditions: Human alphaherpesvirus 1, Blue
[5] = tested on: Human alphaherpesvirus 1; experiment: Antiviral activity against ACV-resistant HSV1 153 infected in African green monkey Vero cells assessed as reduction of virus-induced cytopathic effect measured after 48 hrs of incubation; type: functional, organism-based; conditions: Human alphaherpesvirus 1, 153, Vero

Compound	IC50 [2] [nM]	CC50 at 24 h [1] [µM]	selectivity ratio [3]	IC50 [4] [nM]	IC50 [5] [nM]
CC(C)CC(=O)c1c(O)cc2c(c1O)[C@@H](CC(C)C)C1=C(C[C@H](C)CC1=O)O2	2000	14	7		
CC(C)CC(=O)c1c(O)cc2c(c1O)C(C1CCC1)C1=C(O2)C(C)(C)C(=O)C(C)(C)C1=O (centres undefined)	500	5	10	500	400
CCC(=O)c1c(O)cc2c(c1O)C(CC(C)C)C1=C(O2)C(C)(C)C(=O)C(C)(C)C1=O (centres undefined)	700	7	13.9	1400	1300
CC(C)CC1C2=C(Oc3cc(O)c(C(=O)Cc4ccccc4)c(O)c31)C(C)(C)C(=O)C(C)(C)C2=O (centres undefined)	400	8.5	21.2	300	500
CCCC1C2=C(Oc3cc(O)c(C(=O)CC(C)C)c(O)c31)C(C)(C)C(=O)C(C)(C)C2=O (centres undefined)	500	9	18	300	500
CC(C)CC(=O)c1c(O)cc2c(c1O)[C@@H](CC(C)C)C1=C(O2)C(C)(C)C(=O)C(C)(C)C1=O	410	7.5	18.3		
CC(C)CC1C2=C(Oc3cc(O)c(C(=O)C4CCCC4)c(O)c31)C(C)(C)C(=O)C(C)(C)C2=O (centres undefined)	580	9	15.5	300	300
CC(C)CC(=O)c1c(O)cc2c(c1O)C(C(C)C)C1=C(O2)C(C)(C)C(=O)C(C)(C)C1=O (centres undefined)	630	10	15.9	600	700
CC(C)CC(=O)c1c(O)cc2c(c1O)[C@H](CC(C)C)C1=C(C[C@H](C)CC1=O)O2	2250	20	8.89		
CCCCC(=O)c1c(O)cc2c(c1O)C(CC(C)C)C1=C(O2)C(C)(C)C(=O)C(C)(C)C1=O (centres undefined)	500	8	20	1200	1200
CC(=O)Oc1cc2c(c(OC(C)=O)c1C(=O)CC(C)C)C(CC(C)C)C1=C(O2)C(C)(C)C(=O)C(C)(C)C1=O (centres undefined)	500	7	14	300	400

More lines, main results first:

IC50 [2] [nM]	Compound	CC50 at 24 h [1] [µM]	selectivity ratio [3]	IC50 [4] [nM]	IC50 [5] [nM]
> 100000	COc1cc2c(c(O)c1C(=O)CC(C)C)C(CC(C)C)C1=C(O2)C(C)(C)C(=O)C(C)(C)C1=O (centres undefined)	> 100			
2500	CC(C)CC(=O)c1c(O)c(C=O)c2c(c1O)C(CC(C)C)C1=C(O2)C(C)(C)C(=O)C(C)(C)C1=O (centres undefined)	9	3.6		
900	CC(=O)c1c(O)cc2c(c1O)C(CC(C)C)C1=C(O2)C(C)(C)C(=O)C(C)(C)C1=O (centres undefined)	12.5	13.4		
> 100000	CC(C)CC(O)c1c(O)cc2c(c1O)C(CC(C)C)C1=C(O2)C(C)(C)C(=O)C(C)(C)C1=O (centres undefined)	> 100			
3500	CC(C)CC1C2=C(Oc3c(C(=O)C(C)C)c(O)cc(O)c31)C(C)(C)C(=O)C(C)(C)C2=O (racemic)	12.8	3.65		
7000	CC(C)CC1C2=C(Oc3cc(O)cc(O)c31)C(C)(C)C(=O)C(C)(C)C2=O (centres undefined)	13	1.86		
780	CC(C)C(=O)c1c(O)cc2c(c1O)C(C(C)C)C1=C(O2)C(C)(C)C(=O)C(C)(C)C1=O (racemic)	20.9	26.8		
4500	CC(C)CC1C2=C(Oc3cc(O)c(C=O)c(O)c31)C(C)(C)C(=O)C(C)(C)C2=O (centres undefined)	16	3.56		
3750	CC(C)CC(=O)c1c(O)cc(O)c2c1OC1=C(C(=O)C(C)(C)C(=O)C1(C)C)C2C(C)C (racemic)	10	< 4		
50000	COc1c(C(=O)CC(C)C)c(O)cc2c1C(CC(C)C)C1=C(O2)C(C)(C)C(=O)C(C)(C)C1=O (centres undefined)	> 100			
1500	CCC1C2=C(Oc3c(C(=O)CC(C)C)c(O)cc(O)c31)C(C)(C)C(=O)C(C)(C)C2=O (racemic)	10	< 10		
50000	CC(C)CC(=O)c1ccc2c(c1O)C(CC(C)C)C1=C(O2)C(C)(C)C(=O)C(C)(C)C1=O (centres undefined)	> 100			
5500	CC(C)CC1C2=C(Oc3c(C(=O)C4CCC4)c(O)cc(O)c31)C(C)(C)C(=O)C(C)(C)C2=O (centres undefined)	10	< 2.72		
